Test results: US10047073B2, “Histone deacetylase inhibitors and compositions and methods of use thereof” (CHDI Foundation, Inc., priority 2015, dated 2018)
Where a name gives a salt, the structure may show the parent alone.

Assays:
[1] = molecular target: human catalytic domain HDAC4 protein (Homo sapiens (Human), UniProt P56524); assay: Inhibition of HDAC4 catalytic domain, Boc-Lys(TFA)-AMC fluorogenic substrate; conditions: read-out: HDAC4 Biochemical IC50
Excerpt: Example 13: Analysis of Inhibition of HDAC4 with Class IIa Histone Deacetylase (HDAC) Inhibitors
The potency of Class IIa Histone Deacetylase (HDAC) inhibitors was quantified by measuring the Histone Deacetylase 4 (HDAC4) catalytic domain enzymatic activity using the fluorogenic substrate, Boc-Lys(TFA)-AMC. The substrate was deacetylated to Boc-Lys-AMC by HDAC4. […] The fluorescence of the sample was directly related to the histone deacetylase activity in the sample.
(§1) Serial dilutions of the HDAC inhibitors and control reference compound (1-(5-(3-((4-(1,3,4-oxadiazol-2-yl)phenoxy)methyl)-1,2,4-oxadiazol-5-yl)thiophen-2-yl)-2,2,2-trifluoroethanone) were made by first resuspending the lyophilized compound to a final concentration of 10 mM in 100% dimethyl sulfoxide (DMSO). Stocks of 60 μL aliquots of the 10 mM compound in DMSO were prepared and stored at −20° C. From one stock aliquot of each tested compound and the reference compound, a 16-point serial dilution was prepared according to Table 1 using a 125 μL 16-channel Matrix multi-channel pipette (Matrix Technologies Ltd).
2 μL (200×) of each diluted solution and each control (full activity: 100% DMSO alone or full inhibition 1 mM) was stamped into V-bottomed polypropylene 384-well compound plates using either the Bravo (384-well head from Agilent) or 12.5 μL 16-channel Matrix multi-channel pipette (Matrix Technologies Ltd). Each well with the 200× compound solution was diluted 1:20 by the addition of 38 μL assay buffer+DMSO (10.5% DMSO, 45 mM Tris-HCl, 123 mM NaCl, 2.4 mM KCl, and 0.9 mM MgCl2 at pH 8.0 and equilibrated to r.t.).
The HDAC4 catalytic domain enzyme was human catalytic domain HDAC4 protein (amino acids 648-1032) with a C-terminal 6× histidine tag, produced by BioFocus. A working solution of enzyme was prepared from a 500 μg/mL stock aliquot of HDAC4 catalytic domain (thawed on ice) diluted to 0.2 μg/mL with assay buffer (50 mM Tris-HCl, 137 mM NaCl, 2.7 mM KCl, and 1 mM MgCl2 at pH 8 and equilibrated to r.t.) just prior to the addition of the enzyme to the assay.
5× (50 μM) substrate was prepared just prior to the addition to the assay. A 1 mM substrate stock was made by diluting a 100 mM Boc-Lys(TFA)-AMC in DMSO solution 1:100 by adding it drop-wise to assay buffer (equilibrated to r.t.) while vortexing at slow speed to prevent precipitation. The 5× substrate was prepared by diluting the 1 mM substrate solution 1:20 by adding it drop-wise to assay buffer (equilibrated to r.t.) while vortexing at slow speed to prevent precipitation.
3× (30 μM) Developer/Stop Solution was prepared just prior to addition to the plate by diluting a stock solution of 10 mM reference compound 1:333 in 25 mg/mL trypsin (PAA Laboratories Ltd.) equilibrated to r.t.
5 μL of each solution of 1:20 diluted compound from above was transferred to a clear bottomed, black, 384-well assay plate using the Bravo or the Janus (384-well MDT head from Perkin Elmer). Using a 16-channel Matrix multi-channel pipette, 35 μL of the working solution of HDAC4 catalytic domain enzyme (0.2 μg/mL in assay buffer) was transferred to the assay plate. The assay was then started by adding 10 μL of 5× (50 μM) substrate to the assay plates using either the Bravo, Janus or 16-channel Matrix multi-channel pipette. The assay plate was then shaken for two minutes on an orbital shaker at 900 rpm (rotations per minute). Next the plate was incubated for 15 minutes at 37° C. The reaction was stopped by adding 25 μL of 3× (30 μM) developer/stop solution to the assay plates using either the Bravo, Janus or a 16-channel Matrix multi-channel pipette. Assay plates were then shaken for 5 minutes on an orbital shaker at 1200 rpm. Next, the assay plates were incubated at 37° C. for 1 hour in a tissue culture incubator. Finally, the fluorescence was measured (Excitation: 355 nm, Emission: 460 nm) using PerkinElmer EnVision in top read mode.

[2] = test system: cellular Class IIa HDAC activity in Jurkat E6-1 cells; assay: Inhibition of cellular Class IIa HDAC activity, Cell (Lys-TFA) substrate; assay type: cell-based; conditions: Boc-Lys(TFA)-AMC
Excerpt: Example 17: Analysis of Inhibition of Cellular Class IIa HDAC Activity with Class IIa Histone Deacetylase (HDAC) Inhibitors: Cell (Lys-TFA) Substrate
The potency of Class IIa Histone Deacetylase (HDAC) inhibitors was quantified by measuring the cellular histone deacetylase enzymatic activity using the fluorogenic substrate, Boc-Lys(TFA)-AMC. After penetration in Jurkat E6-1 cells, the substrate was deacetylated to Boc-Lys-AMC. After cell lysis and cleavage by trypsin, the fluorophore AMC was released from the deacetylated substrate only. The fluorescence of the sample was directly related to the histone deacetylase activity in the sample.
Jurkat E6.1 cells were cultured according to standard cell culture protocols in Jurkat E6.1 Growth Media (RPMI without phenol red, 10% FBS, 10 mM HEPES, and 1 mM Sodium Pyruvate). Jurkat E6.1 cells were counted using a Coulter Counter and resuspended in Jurkat E6.1 growth media at a concentration of 75,000 cells/35 μL. 35 μL or 75,000 cells was seeded into Greiner microtitre assay plates. The plates were then incubated at 37° C. and 5% CO2 while other assay components were being prepared.
as §1, with “DMSO.” for “dimethyl sulfoxide (DMSO).”, “[…]” for “60 μL”, “pipette.” for “pipette (Matrix Technologies Ltd).”
2 μL (200×) of each diluted solution and each control (full activity: 100% DMSO alone or full inhibition 1 mM) was stamped into V-bottom polypropylene 384-well compound plates using either the Bravo, Janus, or 12.5 μL 16-channel Matrix multi-channel pipette. Each well with the 200× compound solution was diluted 1:20 by the addition of 38 μL Jurkat assay buffer+DMSO (9.5% DMSO, RPMI without phenol red, 0.09% FBS, 9 mM Hepes, and 0.9 mM Sodium Pyruvate equilibrated to r.t.)
5× (500 μM) substrate was prepared just prior to the addition to the assay. The 5× substrate was prepared by diluting a 100 mM Boc-Lys(TFA)-AMC in DMSO solution 1:200 by adding it drop-wise to Jurkat assay medium (RPMI without phenol red, 0.1% FBS, 10 mM Hepes, and 1 mM Sodium Pyruvate equilibrated to 37° C.) while vortexing at slow speed to prevent precipitation.
10 mL of 3× lysis buffer was prepared with 8.8 mL of 3× stock lysis buffer (50 mM Tris-HCl, pH 8.0, 137 mM NaCl, 2.7 mM KCl, 1 mM MgCl2, 1% Nonidet P40 Substitute equilibrated to r.t.) and 1.2 mL of 3 mg/mL Trypsin equilibrated to r.t.
5 μL of each solution of 1:20 diluted compound from above was transferred to the Greiner microtitre assay plates with 75,000 cells/well using the Bravo. Cells were then incubated for 2 hours at 37° C. and 5% CO2. The assay was then started by adding 10 μL of 5× (500 μM) substrate to the assay plate using either the Bravo or 16-channel Matrix multi-channel pipette. The cells were then incubated for 3 hours at 37° C. and 5% CO2. Next, 25 μL of 3× lysis buffer was added to each well using either the 125 μL 16 channel pipette or the Bravo. The assay plate was then incubated overnight (15-16 hours) at 37° C. and 5% CO2. The following day, the plates were shaken on an orbital shaker for 1 minute at 900 rpm. Finally the top read fluorescence (Excitation: 355 nm, Emission: 460 nm) was measured using PerkinElmer EnVision.

[3] = test system: cellular Class I HDAC activity in Jurkat E6-1 cells; assay: Inhibition of cellular Class I HDAC activity, Cell (Lys-Ac) substrate; assay type: cell-based; conditions: Boc-Lys(Ac)-AMC
Experimental: Example 18: Analysis of Inhibition of Cellular Class I HDAC Activity with Class IIa Histone Deacetylase (HDAC) Inhibitors: Cell (Lys-Ac) Substrate
The Class I HDAC activity of Class IIa Histone Deacetylase (HDAC) inhibitors was quantified by measuring the cellular histone deacetylase enzymatic activity using the fluorogenic substrate, Boc-Lys(Ac)-AMC. This was performed according to the procedure in Example 17, using Boc-Lys(Ac)-AMC substrate in place of Boc-Lys(TFA)-AMC.

[4] = Homo sapiens, Jurkat E6.1, Jurkat E6.1 cells

human catalytic domain HDAC4 protein, sequence (P56524 648-1032): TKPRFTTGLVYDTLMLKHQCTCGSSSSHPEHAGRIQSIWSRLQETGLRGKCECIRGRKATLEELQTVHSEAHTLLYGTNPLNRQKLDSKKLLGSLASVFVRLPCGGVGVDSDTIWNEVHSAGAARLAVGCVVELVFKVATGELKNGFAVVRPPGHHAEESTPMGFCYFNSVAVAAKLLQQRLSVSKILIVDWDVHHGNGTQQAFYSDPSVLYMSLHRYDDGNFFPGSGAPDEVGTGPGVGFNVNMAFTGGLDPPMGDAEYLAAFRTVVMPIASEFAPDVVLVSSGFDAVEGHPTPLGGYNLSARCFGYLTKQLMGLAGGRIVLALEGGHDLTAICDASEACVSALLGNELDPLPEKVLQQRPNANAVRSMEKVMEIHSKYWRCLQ

| SMILES | IC50 [1] [nM] | IC50 [2, 4] [nM] | IC50 ([3]; Jurkat E6.1 cells) [nM] | IC50 ([2]; Jurkat E6.1 cells) [nM] | IC50 [3, 4] [nM] |
| --- | --- | --- | --- | --- | --- |
| O=C(NC1(CN2CCCC2C2CC2)CC1)c1ccc(-c2noc(C(F)(F)F)n2)cc1 (single isomer, unassigned) [Example 6, E1-(abs)-N-(1-((2-Cyclopropylpyrrolidin-1-yl)methyl)cyclopropyl)-4-(5-(trifluoromethyl)-1,2,4-oxadiazol-3-yl)benzamide] | 8 | 28 | 1500 |  |  |
| O=C(NC1(CN2CCCC2C2CC2)CC1)c1ccc(-c2noc(C(F)(F)F)n2)cc1 (single isomer, unassigned) [Example 7, E2-(abs)-N-(1-((2-Cyclopropylpyrrolidin-1-yl)methyl)cyclopropyl)-4-(5-(trifluoromethyl)-1,2,4-oxadiazol-3-yl)benzamide] | 3 |  | 540 | 14 |  |
| C[C@H]1CCCN1CC1CC1NC(=O)c1ccc(-c2noc(C(F)(F)F)n2)cc1 (single isomer, unassigned) [Example 11] | 230 | 1000 |  |  | 36600 |
| O=C(NC1(CN2CCCC3(CC3)C2)CC1)c1ccc(-c2noc(C(F)(F)F)n2)cc1 [Example 1, N-(1-(5-Azaspiro[2.5]octan-5-ylmethyl)cyclopropyl)-4-(5-(trifluoromethyl)-1,2,4-oxadiazol-3-yl)benzamide] | 50 | 140 |  |  | 2600 |
| O=C(NC1(CN2CCC3(CC2)COC3)CC1)c1ccc(-c2noc(C(F)(F)F)n2)cc1 [Example 2, N-(1-(2-Oxa-7-azaspiro[3.5]nonan-7-ylmethyl)cyclopropyl)-4-(5-(trifluoromethyl)-1,2,4-oxadiazol-3-yl)benzamide] | 110 | 240 |  |  | 4900 |
| O=C(NC1(CN2CCCC23COC3)CC1)c1ccc(-c2noc(C(F)(F)F)n2)cc1 [Example 3, N-(1-(2-Oxa-5-azaspiro[3.4]octan-5-ylmethyl)cyclopropyl)-4-(5-(trifluoromethyl)-1,2,4-oxadiazol-3-yl)benzamide] | 750 | 390 |  |  | 8600 |
| O=C(NC1(CN2CC3CCC(C3)C2)CC1)c1ccc(-c2noc(C(F)(F)F)n2)cc1 [Example 4, N-(1-(-3-Azabicyclo[3.2.1]octan-3-ylmethyl)cyclopropyl)-4-(5-(trifluoromethyl)-1,2,4-oxadiazol-3-yl)benzamide] |  | 690 |  |  | 7800 |
| O=C(NC1(CN2CCC3(CC2)CC3)CC1)c1ccc(-c2noc(C(F)(F)F)n2)cc1 [Example 5, N-(1-(6-Azaspiro[2.5]octan-6-ylmethyl)cyclopropyl)-4-(5-(trifluoromethyl)-1,2,4-oxadiazol-3-yl)benzamide] | 89 | 370 |  |  | 2000 |
| CC1(C)CCCN(CC2(NC(=O)c3ccc(-c4noc(C(F)(F)F)n4)cc3)CC2)C1 [Example 8, N-(1-((3,3-Dimethylpiperidin-1-yl)methyl)cyclopropyl)-4-(5-(trifluoromethyl)-1,2,4-oxadiazol-3-yl)benzamide formate] | 30 | 45 |  |  | 2500 |
| O=C(NC1(CN2CCC3(CC3)C2)CCC1)c1ccc(-c2noc(C(F)(F)F)n2)cc1 [Example 9, N-(1-(5-Azaspiro[2.4]heptan-5-ylmethyl)cyclobutyl)-4-(5-(trifluoromethyl)-1,2,4-oxadiazol-3-yl)benzamide] | 58 | 100 |  |  | 700 |
| O=C(NC1(CN2CCCC23COC3)CCC1)c1ccc(-c2noc(C(F)(F)F)n2)cc1 [Example 10, N-(1-(2-Oxa-5-azaspiro[3.4]octan-5-ylmethyl)cyclobutyl)-4-(5-(trifluoromethyl)-1,2,4-oxadiazol-3-yl)benzamide] | 750 | 390 |  |  | 8600 |
| CC1(C)CCCN(CC2(NC(=O)c3ccc(-c4noc(C(F)(F)F)n4)c(F)c3)CC2)C1 [Example 12, N-(1-((3,3-Dimethylpiperidin-1-yl)methyl)cyclopropyl)-3-fluoro-4-(5-(trifluoromethyl)-1,2,4-oxadiazol-3-yl)benzamide] | 76 | 312 |  |  | 15100 |
